Results published in US20230174951A1, “PHENOL-RICH GRAPES” (THE STATE OF ISRAEL, MINISTRY OF AGRICULTURE & RURAL …, priority 2020, published 2023).

How the values were obtained:
[1] = system: AroG*+STS28 (Line 16) cells; assay: Effect of Phe and p-CA concentrations on cell growth; assay type: cell-based, Vitis vinifera
Experimental: The concentrations of Phe and p-CA chosen for the feeding experiments were those in which cell viability was not affected, but cell growth was slower. To compare the growth rate, the fresh Weight (FW) of the cells per ml growth media was measured at day 7 of growth. […] Even though the viability of the treated with 0.5-5 mM Phe and 0.1-0.3 mM p-CA was similar, their growth pattern differed with formation of larger clumps in the liquid media (FIG. 6C).

SMILES: N[C@@H](Cc1ccccc1)C(=O)O [Phe, Phenylalanine]
- weight of treated cells ([1]; 1, 2 and 5 mM, day 7): weighed significantly less

SMILES: O=C(O)/C=C/c1ccc(O)cc1 [p-Coumaric acid, p-coumaric acid]
- cell growth ([1]; 0.3 mM, compared to cells in 0.2% ethanol): slower growth
- water solubility (Water solubility): not water soluble
